Experiments:
Format in all cases: in vivo
Parameters in all cases: unit not given here
[1] = test system: lambsquarters (Chenopodium album); assay: Postemergence herbicidal activity in sugar beet, lambsquarters; details: sugar beet test, visual rating after 21 d, probit analysis, dose to kill or control 80 percent
Procedure: (§1) Seeds of sugar beet and the desired weed species were planted in Sun Gro MetroMix® 360 planting mixture, which typically has a pH of 6.0 to 6.8 and an organic matter content of about 30 percent, in plastic pots with a surface area of 95 cm^2. When required to ensure good germination and healthy plants, a fungicide treatment and/or other chemical or physical treatment was applied. The plants were grown for 15-28 d in a greenhouse with an approximate 15-h photoperiod which was maintained at about 23-29° C. during the day and 22-28° C. during the night. Nutrients and water were added on a regular basis and supplemental lighting was provided with overhead metal halide 1000-Watt lamps as necessary. The sugar beet plants were utilized for testing when they reached the third or fourth true leaf stage. The weed species were utilized at the fourth true leaf stage.
(§2) A weighed amount, determined by the highest rate to be tested, of each test compound was dissolved in 4 mL of a 97:3 v/v mixture of acetone and DMSO to obtain concentrated stock solutions. […] The concentrated stock solutions obtained were diluted with 20 mL of an aqueous mixture containing acetone, water and Agri-Dex crop oil concentrate, in a 16.7:82.1:1.25 v/v ratio to obtain spray solutions containing the highest application rates. Additional application rates were obtained by serial dilution of 12 mL of the high rate solution into a solution containing 2 mL of 97:3 v/v mixture of acetone and DMSO and 10 mL of an aqueous mixture containing acetone, water and Agri-Dex crop oil concentrate, in a 16.7:82.1:1.25 v/v ratio to obtain ½×, ¼×, ⅛× and 1/16× rates of the high rate. Compound requirements are based upon a 12 mL application volume at a rate of 187 L/ha. Formulated compounds were applied to the plant material with an overhead Mandel track sprayer equipped with 8002E nozzles calibrated to deliver 187 L/ha over an application area of 0.503 m^2 at a spray height of 18 inches (43 cm) above the average plant canopy height. Control plants were sprayed in the same manner with the solvent blank.
(§3) The treated plants and control plants were placed in a greenhouse as described above and watered by sub-irrigation to prevent wash-off of the test compounds. After 21 d, the condition of the test plants as compared with that of the untreated plants was determined visually and scored on a scale of 0 to 100 percent where 0 corresponds to no injury and 100 corresponds to complete kill.
(§4) By applying the well-accepted probit analysis as described by J. Berkson in Journal of the American Statistical Society 1953, 48, 565, and by D. Finney in “Probit Analysis” Cambridge University Press (1952), the above data can be used to calculate GR20 and GR80 values, which are defined as growth reduction factors that correspond to the effective dose of herbicide required to kill or control 20 percent or 80 percent, respectively, of a target plant.

[2] = test system: sugar beet (Beta vulgaris); assay: Postemergence herbicidal activity in sugar beet, crop; details: visual rating after 21 d, probit analysis, dose to kill or control 20 percent
Procedure: as §1, §2, §3, §4

[3] = test system: purple deadnettle (Lamium purpureum); assay: Postemergence herbicidal activity in sugar beet, purple deadnettle; details: sugar beet test, visual rating after 21 d, probit analysis, dose to kill or control 80 percent
Procedure: as §1, §2
as §3, with “kill. […]” for “kill.”

For `CONC(=O)c1nc(-c2ccc(Cl)c(OC)c2F)cc(N)c1Cl` [Compound 2, 4-Amino-3-chloro-6-(4-chloro-2-fluoro-3-methoxyphenyl)-N-methoxypicolinamide], the “CHEAL GR80” value [1] was 21.5, the “BEAVA GR20” value [2] was greater than 35 and the “LAMPU GR80” value [3] was less than 4.38.

From patent US20130324412A1, “N-ALKOXYAMIDES OF 6-(SUBSTITUTED PHENYL)-4-AMINOPICOLINATES AND 2-(SUBSTITUTED PHENYL)-6-AMINO-4-PYRIMIDINECARBOXYLATES AND THEIR USE AS SELECTIVE HERBICIDES FOR CROPS” (DOW AGROSCIENCES LLC, priority 2009, published 2013)
